Assay results as given in ChEMBL document CHEMBL1201862, “PubChem BioAssay data set” (2004).
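Exposure lasted 48 hours, with cells grown in 96-well plates and compounds tested at five concentrations. At the GI50, growth is halved.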 Activity calls are given as the source filed them. Rule as the data show it: active = GI50 up to about 1.1 µM and inactive = higher.

Columns and labels:
Assay in all cases: growth of human tumour cells (NCI), 48 h
786-0 = test system: 786-0
A498 = test system: A498
A549 = test system: A549
ACHN = test system: ACHN
BT-549 = test system: BT-549
CAKI-1 = test system: CAKI-1
CCRF-CEM = test system: CCRF-CEM
COLO 205 = test system: COLO 205
DU-145 = test system: DU-145
EKVX = test system: EKVX
HCC 2998 = test system: HCC 2998
HCT-116 = test system: HCT-116
HCT-15 = test system: HCT-15
HL-60 = test system: HL-60
HOP-62 = test system: HOP-62
HOP-92 = test system: HOP-92
HT-29 = test system: HT-29
Hs-578T = test system: Hs-578T
IGROV-1 = test system: IGROV-1
K562 = test system: K562
KM12 = test system: KM12
LOX IMVI = test system: LOX IMVI
M14 = test system: M14
MCF7 = test system: MCF7
MDA-MB-231 = test system: MDA-MB-231
MDA-MB-435 = test system: MDA-MB-435
MDA-N = test system: MDA-N
MOLT-4 = test system: MOLT-4
Malme-3M = test system: Malme-3M
NCI-H226 = test system: NCI-H226
NCI-H23 = test system: NCI-H23
NCI-H460 = test system: NCI-H460
NCI-H522 = test system: NCI-H522
NCI/ADR-RES = test system: NCI/ADR-RES
OVCAR-3 = test system: OVCAR-3
OVCAR-4 = test system: OVCAR-4
OVCAR-5 = test system: OVCAR-5
OVCAR-8 = test system: OVCAR-8
PC-3 = test system: PC-3
RPMI-8226 = test system: RPMI-8226
RXF 393 = test system: RXF 393
SF-268 = test system: SF-268
SF-295 = test system: SF-295
SF-539 = test system: SF-539
SK-MEL-28 = test system: SK-MEL-28
SK-MEL-2 = test system: SK-MEL-2
SK-MEL-5 = test system: SK-MEL-5
SK-OV-3 = test system: SK-OV-3
SN12C = test system: SN12C
SNB-19 = test system: SNB-19
SNB-75 = test system: SNB-75
SR = test system: SR
SW-620 = test system: SW-620
T47D = test system: T47D
TK-10 = test system: TK-10
U-251 = test system: U-251
UACC-257 = test system: UACC-257
UACC-62 = test system: UACC-62
UO-31 = test system: UO-31

For CC(C)=CCC[C@@H](C)C1=C(O)C(=O)C(C)=C(N[C@H](C)c2ccccc2)C1=O, the GI50 (786-0) was 3.66 µM (inactive), the GI50 (A498) was 3.91 µM (inactive) and the GI50 (A549) was 3.28 µM (inactive). For the same compound, the GI50 (ACHN) was 3.72 µM (inactive), the GI50 (BT-549) was 7.16 µM (inactive) and the GI50 (CAKI-1) was 4.11 µM (inactive). For the same compound, the GI50 (CCRF-CEM) was 0.923 µM (active), the GI50 (COLO 205) was 4.33 µM (inactive) and the GI50 (DU-145) was 6.53 µM (inactive). For the same compound, the GI50 (EKVX) was 5.08 µM (inactive), the GI50 (HCC 2998) was 11.7 µM (inactive) and the GI50 (HCT-116) was 4.66 µM (inactive). For the same compound, the GI50 (HCT-15) was 2.67 µM, the GI50 (HL-60) was 2.21 µM (inactive) and the GI50 (HOP-62) was 2.92 µM (inactive). The GI50 (HOP-92) was 6.14 µM (inactive), the GI50 (HT-29) was 3.78 µM (inactive) and the GI50 (Hs-578T) was 6.12 µM (inactive). The GI50 (IGROV-1) was 3.8 µM (inactive), the GI50 (K562) was 6.64 µM (inactive) and the GI50 (KM12) was 6.3 µM (inactive). For the same compound, the GI50 (LOX IMVI) was 4.53 µM (inactive), the GI50 (M14) was 5.41 µM (inactive) and the GI50 (MCF7) was 3.64 µM (inactive). The GI50 (MDA-MB-231) was 7.35 µM (inactive), the GI50 (MDA-MB-435) was 7.1 µM (inactive) and the GI50 (MDA-N) was 7.23 µM (inactive). For the same compound, the GI50 (MOLT-4) was 2.54 µM (inactive), the GI50 (Malme-3M) was 3.24 µM (inactive) and the GI50 (NCI-H226) was 4.27 µM (inactive). The GI50 (NCI-H23) was 4.38 µM (inactive), the GI50 (NCI-H460) was 2.75 µM (inactive) and the GI50 (NCI-H522) was 3.2 µM (inactive). For the same compound, the GI50 (NCI/ADR-RES) was 1.3 µM (inactive), the GI50 (OVCAR-3) was 5.36 µM (inactive) and the GI50 (OVCAR-4) was 5.75 µM (inactive). For the same compound, the GI50 (OVCAR-5) was 16.3 µM (inactive), the GI50 (OVCAR-8) was 2.58 µM (inactive) and the GI50 (PC-3) was 10.9 µM (inactive). For the same compound, the GI50 (RPMI-8226) was 6.31 µM (inactive), the GI50 (RXF 393) was 6.71 µM (inactive) and the GI50 (SF-268) was 7.01 µM (inactive). The GI50 (SF-295) was 3.86 µM (inactive), the GI50 (SF-539) was 3.11 µM (inactive) and the GI50 (SK-MEL-28) was 6.76 µM (inactive). For the same compound, the GI50 (SK-MEL-2) was 10.2 µM (inactive), the GI50 (SK-MEL-5) was 3.08 µM (inactive) and the GI50 (SK-OV-3) was 3.84 µM (inactive). The GI50 (SN12C) was 6.55 µM (inactive), the GI50 (SNB-19) was 6.07 µM (inactive) and the GI50 (SNB-75) was 2.53 µM (inactive). For the same compound, the GI50 (SR) was 22.3 µM (inactive), the GI50 (SW-620) was 5.92 µM (inactive) and the GI50 (T47D) was 4.31 µM (inactive). For the same compound, the GI50 (TK-10) was 8.17 µM (inactive), the GI50 (U-251) was 5.51 µM (inactive) and the GI50 (UACC-257) was 8.36 µM (inactive). For the same compound, the GI50 (UACC-62) was 2.81 µM (inactive) and the GI50 (UO-31) was 4.27 µM (inactive).
In the case of CCOC(=O)C1=C(C)NC(C)=C(C(=O)OCCNC(=O)c2ccc(N=[N+]=[N-])cc2)C1c1ccccc1C(F)(F)F (stereo not drawn) [AZIDOPINE], the GI50 (786-0) is reported as 13.3 µM (inactive), the GI50 (A498) is reported as > 10 µM (inactive) and the GI50 (A549) is reported as 8 µM (inactive). For the same compound, the GI50 (ACHN) was 7.64 µM (inactive), the GI50 (BT-549) was 13.9 µM (inactive) and the GI50 (CAKI-1) was 12.4 µM (inactive). For the same compound, the GI50 (CCRF-CEM) was 6.55 µM (inactive), the GI50 (COLO 205) was 6.25 µM (inactive) and the GI50 (DU-145) was 10.5 µM (inactive). For the same compound, the GI50 (EKVX) was 10.7 µM (inactive), the GI50 (HCC 2998) was 13.2 µM (inactive) and the GI50 (HCT-116) was 9.73 µM (inactive). The GI50 (HCT-15) was 8.45 µM, the GI50 (HL-60) was 7.66 µM (inactive) and the GI50 (HOP-62) was > 21.5 µM (inactive). The GI50 (HOP-92) was 2.01 µM (inactive), the GI50 (HT-29) was 9.46 µM (inactive) and the GI50 (Hs-578T) was 12.7 µM (inactive). The GI50 (IGROV-1) was 18.7 µM (inactive), the GI50 (K562) was 7.83 µM (inactive) and the GI50 (KM12) was 7.85 µM (inactive). The GI50 (LOX IMVI) was 10.7 µM (inactive), the GI50 (M14) was 9.98 µM (inactive) and the GI50 (MCF7) was 6.43 µM (inactive). For the same compound, the GI50 (MDA-MB-231) was 14 µM (inactive), the GI50 (MDA-MB-435) was 9.27 µM (inactive) and the GI50 (MDA-N) was 10.2 µM (inactive). For the same compound, the GI50 (MOLT-4) was 4.09 µM (inactive), the GI50 (Malme-3M) was 14 µM (inactive) and the GI50 (NCI-H226) was 15 µM (inactive). For the same compound, the GI50 (NCI-H23) was 11.3 µM (inactive), the GI50 (NCI-H460) was 9.12 µM (inactive) and the GI50 (NCI-H522) was 8.39 µM (inactive). For the same compound, the GI50 (NCI/ADR-RES) was 8.28 µM (inactive), the GI50 (OVCAR-3) was 9.06 µM (inactive) and the GI50 (OVCAR-4) was 12.2 µM (inactive). The GI50 (OVCAR-5) was 19.9 µM (inactive), the GI50 (OVCAR-8) was 14.8 µM (inactive) and the GI50 (PC-3) was 3.28 µM (inactive). The GI50 (RPMI-8226) was 4.37 µM (inactive), the GI50 (RXF 393) was 9.57 µM (inactive) and the GI50 (SF-268) was 10.3 µM (inactive). The GI50 (SF-295) was 8.61 µM (inactive), the GI50 (SF-539) was 19.1 µM (inactive) and the GI50 (SK-MEL-28) was 13.4 µM (inactive). The GI50 (SK-MEL-2) was 6.53 µM (inactive), the GI50 (SK-MEL-5) was 7.85 µM (inactive) and the GI50 (SK-OV-3) was 13.3 µM (inactive). For the same compound, the GI50 (SN12C) was 15.1 µM (inactive), the GI50 (SNB-19) was 15.4 µM (inactive) and the GI50 (SNB-75) was > 10 µM (inactive). The GI50 (SR) was 4.44 µM (inactive), the GI50 (SW-620) was 15.3 µM (inactive) and the GI50 (T47D) was 8.93 µM (inactive). The GI50 (TK-10) was 8.22 µM (inactive), the GI50 (U-251) was 10.9 µM (inactive) and the GI50 (UACC-257) was 11.5 µM (inactive). For the same compound, the GI50 (UACC-62) was 11.2 µM (inactive) and the GI50 (UO-31) was 4.79 µM (inactive).
